For one assay, the target named is T1, FPtk1 (Porphyromonas gingivalis, UniProt B2RKZ8).
T1 construct: gene PGN_1524
Particulars: 5 mM ATP, 1 h; Php1 as phosphoacceptor.

Assay [1] has as its target T2, Php1 (Porphyromonas gingivalis, UniProt B2RKZ9). Set-up: gene PGN_1525. The settings on record: 50 mM pNPP, pH 8.0, 37 °C, 1 mM MnCl2; also inhibits with phosphotyrosine as substrate.
The next assay has as its target T3, Ltp1 (Porphyromonas gingivalis, UniProt B2RI15).
T3 construct: gene PGN_0491
Kind of assay: phosphatase inhibition, pNPP hydrolysis. The settings on record: pNPP as substrate; DMSO vehicle. Type of assay: biochemical.

Assay [2] concerns the target T2, Php1. Description: p-nitrophenol release ([…] nm). Type of assay: biochemical. The arrangement: gene PGN_1525; php1 coding region, GST-tagged (pGEX-4T-1) or His-tagged (pLATE51), E. coli BL21(DE3) Star; 247 residues, 28 kDa. Particulars: 50 mM pNPP, pH 8.0, 37 °C, 1 mM MnCl2.
In assay [3] the target is T2, Php1. Set-up: gene PGN_1525. The settings on record: 200 μM phosphotyrosine, pH 8.0, 37 °C, 1 mM MnCl2.

T2 sequence (B2RKZ9 entry or part of it): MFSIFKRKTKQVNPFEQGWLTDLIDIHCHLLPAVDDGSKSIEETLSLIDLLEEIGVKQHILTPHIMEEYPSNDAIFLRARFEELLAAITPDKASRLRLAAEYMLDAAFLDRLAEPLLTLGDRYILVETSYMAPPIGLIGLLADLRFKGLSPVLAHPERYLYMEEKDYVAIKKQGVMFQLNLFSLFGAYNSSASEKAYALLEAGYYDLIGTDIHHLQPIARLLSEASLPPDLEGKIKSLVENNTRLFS
T3 sequence (B2RI15 entry or part of it): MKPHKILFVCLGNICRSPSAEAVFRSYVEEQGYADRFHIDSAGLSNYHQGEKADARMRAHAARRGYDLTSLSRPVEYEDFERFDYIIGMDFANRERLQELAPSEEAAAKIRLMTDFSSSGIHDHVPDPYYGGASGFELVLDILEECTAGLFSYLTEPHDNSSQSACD
T1 sequence (B2RKZ8 entry or part of it): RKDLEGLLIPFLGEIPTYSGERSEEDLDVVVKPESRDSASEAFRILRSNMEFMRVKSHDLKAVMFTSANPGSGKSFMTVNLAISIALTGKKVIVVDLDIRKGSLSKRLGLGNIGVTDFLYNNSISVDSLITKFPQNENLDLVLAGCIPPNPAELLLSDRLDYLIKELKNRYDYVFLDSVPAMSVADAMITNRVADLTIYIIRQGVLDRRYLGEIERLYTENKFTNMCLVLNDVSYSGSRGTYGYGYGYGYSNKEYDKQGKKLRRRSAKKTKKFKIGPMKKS

Take `Nc1ncnc2c1ncn2[C@@H]1O[C@H](COP(=O)(O)OP(=O)(O)OP(=O)(O)O)[C@@H](O)[C@H]1O` [ATP]: the “anti-phosphotyrosine immunoblot of Php1 phosphorylation” value on FPtk1 is reported as “Tyrosine phosphorylation of Php1 increased after incubation with FPtk1 in the presence of ATP”. On to `[O]=[V]([OH])([OH])[OH]` [Na3VO4, sodium orthovanadate], for which the inhibition entry against Php1 [1] is reported as “(pNPP) was inhibited by the tyrosine phosphatase inhibitor Na3VO4”. As for `Nc1ccc(C(=O)O)cc1` [pABA, para-amino benzoic acid], the “% activity relative to no inhibitor” value at Ltp1 was “Both H2O2 and pABA inhibited Ltp1 but not Php1”. Take `O=[N+]([O-])c1ccc(OP(=O)(O)O)cc1` [pNPP, p-nitrophenyl phosphate]: on Php1 [2], the “p-nitrophenol release (405 nm)” value is given as “Php1 phosphatase activity on p-nitrophenyl phosphate (pNPP)”.

For the molecule `N[C@@H](Cc1ccc(OP(=O)(O)O)cc1)C(=O)O` [phosphotyrosine], on Php1 [3], the “malachite green phosphate release” value is “Php1 was most active against phosphotyrosine”.

Values taken from publication PMC6759763, “Porphyromonas gingivalis Tyrosine Phosphatase Php1 Promotes Community Development and Pathogenicity” (mBio, 2019).
